The values that follow come from patent publication US20110207829A1, “CONTROL OF TERMITES, FIRE ANTS AND CARPENTER ANTS” (Bedoukian Research, Inc, priority 2008, published 2011).

The test system of data set [1] is Formosan subterranean termites. The data set can be described thus: Vapor Toxicity Under Subterranean Conditions (soil and wood). Type of data set: in vivo, Coptotermes formosanus. Particulars: for termites killed (vapor toxicity under subterranean conditions): 25 mg. The method, then:
(§1) Formosan subterranean termites were collected from bucket traps placed in City Park,
(§2) New Orleans, La. Altogether five colonies designated 1314, 1559, 1732, 1743 and 1756 were used in the tests. After collection, the termites (primarily workers and soldiers) were transferred to plastic boxes with moist spruce slats. The boxes were stored in an incubator maintained at 28° C., 65% RH, and constant darkness. Termites were used within one month of their collection.
Vapor Toxicity Under Subterranean Conditions. This test was also conducted in the
Qorpak™ bottles. A 35 by 40 by 7 mm piece of moist spruce was placed at the bottom of the bottle and covered with 40 g fine-sifted black soil. One hundred workers were released into each bottle and allowed to tunnel under the soil and into the wood. After 3 days, a test chemical was applied to a filter paper and suspended from the cap-liner. The chemicals were tested at a rate of 25 mg. […] The test was conducted with termites from 3 colonies and replicated 3 times.

For data set [2], the system named is Formosan subterranean termites. The data set can be described thus: Assay for Vapor Toxicity (1 liter bottles). Type of data set: in vivo, Coptotermes formosanus. The method, then:
as §1, §2
Assay for Vapor Toxicity. This test was conducted in 960 ml (approximately 1 liter) wide-mouth clear Qorpak™ (All-Pak, Inc.) bottles with PTFE lined caps. A 60 mm diameter glass Petri dish with a moist filter paper and 50 termite workers was placed at the bottom of each bottle. The test chemical was applied to a 1 cm diameter filter paper and suspended with an insect pin from the cap-liner. Each chemical was initially tested at 1 mg then at 0.1 and 0.5 mg. Since 0.1 and 0.5 mg doses caused very low and 100% mortality respectively, the final test was carried out at 0.25 mg. Each chemical was tested with different termite colonies and replicated three times. The bottles were placed in the incubator. Mortality was recorded after 1, 2 and 3 days by quickly taking the glass Petri dish with the termites out of the bottle (with a pair of long forceps) and replacing it after removing the dead workers.

The test system of the next data set is carpenter ants. The data set can be described thus: Carpenter ant test in sealed jars. Type of data set: in vivo. To be noted: within 24 hours; one drop (approximately 25 to 30 mg) on filter paper in sealed jar. The method, then:
One drop (approximately 25 to 30 mg) of test compound (l-linaloo , l-carvone, and Styralyl Alcohol,) was applied to a filter paper within sealed jars (16 oz glass jar, 3½ inch diameter, 3⅞ inch high with plastic lids) containing ten carpenter ants per replicate with there being five replicates. Five negative controls with no test compounds were also run. The l-linalool, l-carvone, and styralyl alcohol each provided 100% mortality to the carpenter ants within 24 hours while the control produced 6% mortality over the same 24 hour period.

For data set [3], the system named is Formosan subterranean termites. The data set can be described thus: Assay for Contact Toxicity (treated filter paper in Petri dishes). Particulars: 1 day; rate of 0.5 mg/liter. In kind it is in vivo, Coptotermes formosanus.

As for `C=C(C)C1CC=C(C)C(O)C1` (mixture of isomers) [carveol, reference compound], the “effectiveness against termites in soil and wood” value (from here on “effectiveness against termites”) in data set [1] was “totally ineffective”.
`CC(O)c1ccccc1` (stereo not drawn) [Styralyl Alcohol, alpha-methyl benzyl alcohol]: the “termites killed (vapor toxicity)” value in data set [2] (2 days, 0.25 mg/liter volume) stood at 100%. For the same molecule, the “mortality to carpenter ants” value in the data set with carpenter ants stood at 100%. Further, the “termites killed (vapor toxicity under subterranean conditions)” value in data set [1] (time not given) is on record as 11%. For the same molecule, the “termites killed (contact toxicity)” value in data set [3] was determined as 98%.
Regarding `CC(C)=CCCC(C)CC=O` (stereo not drawn) [citronellal, reference compound], the “effectiveness against termites” value in data set [1] was “totally ineffective”.
Turning to `CC(C)=CCC/C(C)=C/CO` [geraniol, reference compound], in data set [1], the “effectiveness against termites” value is given as “totally ineffective”.
`C=C[C@](C)(O)CCC=C(C)C` [l-linalool]: the “termites killed (vapor toxicity)” value in data set [2] (1 day, 0.5 mg) is recorded as 100%; in data set [2] (3 days, 0.25 mg), 70%. In the data set with carpenter ants, the “mortality to carpenter ants” value worked out at 100%. Besides, in data set [1] (2 days), the “termites killed (vapor toxicity under subterranean conditions)” value was 69%.
Regarding `Cc1ccc(C(C)C)cc1` [p-cymene, reference compound], the “effectiveness against termites” value in data set [1] is listed as “totally ineffective”.
As to `CCC(C)(O)CCCC(C)C` (stereo not drawn) [tetrahydrolinalool], the “termites killed (vapor toxicity under subterranean conditions)” value in data set [1] (2 days) came out at 53%.
l-carvone: the “termites killed (vapor toxicity)” value was found to be 100% in data set [2] (1 day, 0.5 mg) and 95% in data set [2] (3 days, 0.25 mg). Also, the “mortality to carpenter ants” value with carpenter ants was 100%. Besides, the “termites killed (vapor toxicity under subterranean conditions)” value came to 57% in data set [1] (2 days) and 37% in data set [1] (one day).
